Counter-ions that a name gives are not always drawn.
What was measured:
[1] = PK experiments in rats: plasma compound (I) after oral dosing of prodrugs; format: in vivo, Han Wistar rats; settings: Wistar rats, FIG. 2, doses equal to 287 μg/kg of compound (I)
Experimental: Plasma was placed on water-ice following collection. Final storage at approximately −70° C.
Mobile phase B: Acetonitrile. […] Flow rate 0.5 mL/min.
The rats had unrestricted access to the diet.
Mobile phase B: Acetonitrile+0.2% formic acid. […] Flow rate 0.3 mL/min.
Han Wistar rats were supplied by Envigo, UK. […] The rats received a standard laboratory diet Teklad 2014C. The rats had unrestricted access to the diet.

male CD rats = experiment: Rat locomotor activity (hyperactivity) assay, open field; format: in vivo
Experimental: In total, 206 male CD rats (Charles River, Germany) weighing 200-250 grams (165-190 grams upon arrival) were used in the study. Animals were housed at a standard temperature (22±1° C.) and in a light-controlled environment (lights on from 7 am to […]) with ad libitum access to food and water. The experiment described below was performed in accordance with the standard operating procedures of Charles River Discovery Research Services Finland Ltd. and in accordance with the national Animal Experiment Board of Finland (Eläinkoelautakunta, ELLA) authority on animal testing.
The test device is a square Plexiglass-arena (measuring 40×40×40 cm), in which the movement paths of the rats are recorded by an activity monitor (Med. Associates Inc.). Before the test period is initiated, rats are habituated to their test cage for 60 minutes. Upon completion of habituation, animals were treated with either compound or vehicle and placed back into the open field apparatus. The main test parameter measured is ambulatory distance (recorded in 5 minute segments). Overall time of measurement after receiving initial treatment was 360 minutes. Total follow up period in the study was 420 min, including 60 min of habituation.

human 5-HT2B receptor = human 5-HT2B receptor (Homo sapiens (Human), UniProt P41595); experiment: 5-HT2B radioligand binding assay ([125I](±)DOI); settings: 0.2 nM [125I](±)DOI, read-out: 5-HT2B binding affinity (% inhibition of control, specific binding at concentration indicated)
human 5-HT2B receptor, sequence (P41595 whole entry): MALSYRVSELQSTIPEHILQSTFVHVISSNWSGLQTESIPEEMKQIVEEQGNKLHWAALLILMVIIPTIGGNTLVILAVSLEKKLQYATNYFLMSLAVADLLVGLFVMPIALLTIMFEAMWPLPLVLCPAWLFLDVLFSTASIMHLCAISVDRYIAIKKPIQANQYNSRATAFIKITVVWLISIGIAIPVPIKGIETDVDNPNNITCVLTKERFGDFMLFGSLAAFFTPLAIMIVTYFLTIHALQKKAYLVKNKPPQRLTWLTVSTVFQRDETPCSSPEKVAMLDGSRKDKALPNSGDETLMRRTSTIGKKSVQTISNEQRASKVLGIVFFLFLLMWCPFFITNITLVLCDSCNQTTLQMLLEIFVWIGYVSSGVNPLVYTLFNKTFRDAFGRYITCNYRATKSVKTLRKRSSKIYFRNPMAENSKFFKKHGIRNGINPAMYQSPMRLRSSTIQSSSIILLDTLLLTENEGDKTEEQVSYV
Experimental: Membrane homogenates prepared from CHO cells expressing the human 5HT2B receptor were incubated for 60 min at room temperature with 0.2 nM [125I](±)DOI (1-(4-iodo-2, 5-dimethoxyphenyl)propan-2-amine) in the absence or presence of the test compound in a buffer containing 50 mM Tris-HCl (pH 7.4), 5 mM MgCl2, 10 μM pargyline and 0.1% ascorbic acid. Nonspecific binding is determined in the presence of 1 μM (±)DOI. Following incubation, the samples were filtered rapidly under vacuum through glass fiber filters (GF/B, Packard) presoaked with 0.3% polyethyleneimine (PEI) and rinsed several times with ice-cold 50 mM Tris-HCl using a 96-sample cell harvester (Unifilter, Packard). The filters were dried and counted for radioactivity in a scintillation counter (Topcount, Packard) using a scintillation cocktail (Microscint 0, Packard). The results are expressed as a percent inhibition of the control radioligand specific binding. The standard reference compound was (±)DOI, which was tested in each experiment at several concentrations to obtain a competition curve from which its IC50 is calculated.

[2] = Conversion to compound (I) in fresh rat blood; format: in vitro ADME; settings: fresh blood 37° C., 1 μg/mL, 0-60 minutes, FIG. 8a
Experimental: Conversion of (Id-ia), (Id-ib), (Id-iia) and (Id-iib) in human blood (average of 3 donors) and rat blood (average of 45 donors) to (I) was shown in fresh blood at 37° C. spiked with 1 μg/mL of (Id-ia), (Id-ib), (Id-iia) and (Id-iib) separately, (I) was measured at 0, 5, 15, 30 and 60 minutes in isolated plasma. Analysis method and Instrumentation as described in Examples 4 and 5 below in the section “Instrumentation used for analysis of compound (I) from dosing of compounds (Ic), (Id-ia), (Id-ib), (Id-iia), (Id-iib), (Id-iab) and (Id-iiab).”

What does the source list for `CCCN1CCC[C@@H]2Cc3c(ccc(O)c3O[C@@H]3O[C@H](C(=O)O)[C@@H](O)[C@H](O)[C@H]3O)C[C@H]21` [(Id-ia), (2S,3S,4S,5R,6S)-3,4,5-trihydroxy-6-(((4aR,10aR)-7-hydroxy-1-propyl-1,2,3,4,4a,5,10,10a-octahydrobenzo[g]quinolin-6-yl)oxy)tetrahydro-2H-pyran-2-carboxylic acid]?
plasma profile of compound (I) after oral dosing (in words) [1]: slower absorption rate avoiding rapid peak concentrations accompanied by a sustained exposure of compound (I) in plasma; relationship between behavioral effect and plasma concentrations (male CD rats; (Id-ia) 100 μg/kg p.o. (FIG. 5), apomorphine 3 mg/kg s.c. (FIG. 6)): correlate with the plasma concentrations of compound (I); start of locomotor activity effect post-administration (male CD rats; (Id-ia) 10 to 300 μg/kg p.o., apomorphine 3 mg/kg s.c., pramipexole 0.3 mg/kg s.c.): ~2 h; total distance travelled vs vehicle (male CD rats; FIG. 4, (Id-ia) p.o., apomorphine 3 mg/kg s.c., pramipexole 0.3 mg/kg s.c.): significantly increased activity; time until locomotor effect is gone (male CD rats; apomorphine: post administration, pramipexole: after appearance of effect, (Id-ia): recording ended at 415-minute time point): lasting until the end of recording; inhibition at 10 µM (human 5-HT2B receptor): -25%; conversion to compound (I) in rat blood [2]: time dependent conversion to compound (I)

Which “plasma profile of compound (I) after oral dosing (in words)” value [1] does the source give for `CCCN1CCC[C@@H]2Cc3c(ccc(O)c3OS(=O)(=O)O)C[C@H]21` [(Id-iia), (4aR,10aR)-7-hydroxy-1-propyl-1,2,3,4,4a,5,10,10a-octahydrobenzo[g]quinolin-6-yl hydrogen sulfate] here?
Its value is “slower absorption rate avoiding rapid peak concentrations accompanied by a sustained exposure of compound (I) in plasma”.

What about the inhibition at 10 µM (human 5-HT2B receptor) of the same molecule?
Its inhibition at 10 µM is 6%.

What about the “conversion to compound (I) in rat blood” value [2] of the same molecule?
The value was “time dependent conversion to compound (I)”.
